PMC9571170, “Exploring Active Ingredients, Beneficial Effects, and Potential Mechanism of Allium tenuissimum L. Flower for Treating T2DM Mice Based on Network Pharmacology and Gut Microbiota” (Nutrients, 2022)

Experiments:
[1] = molecular target: α−Glucosidase (from yeast); assay: In vitro α−glucosidase inhibitory activity assay (PNPG substrate); format: biochemical; conditions: n=3; acarbose positive control
Experimental: The α−glucosidase inhibitory activity assay method of A. tenuissimum flower flavonoids was slightly modified based on previous studies. A 96−well plate was used for preparing the mixture consisting of 0.1 M PBS (pH 6.8), 1.0 mg/mL sample solution, and 2 U/mL α−glucosidase, which were incubated at 37 °C for 10 min. 20 μL PNPG solution (2.5 Mm, dissolved in PBS) was added to each well to start the reaction and incubated at 37 °C. Twenty minutes later, 80 μL Na2CO3 solution (0.2 mol/L) was added to each well to terminate the reaction. The absorbance was measured at 405 nm by Tecan Infinite M200 PRO (Tecan Trading Co. Ltd., Shanghai, China). […] The inhibitory rate was calculated by the absorbance formula below:Inhibition% = [1 − (Aa − Ab) / Ac] × 100% a. 20 μL PNPG + 80 μL Na2CO3 + 20 μL PBS + 20 μL sample + 20 μL enzyme; b. 20 μL PNPG + 80 μL Na2CO3 + 40 μL PBS +20 μL sample; c. 20 μL PNPG + 80 μL Na2CO3 + 40 μL PBS + 20 μL enzyme.

[2] = set-up: method as in TCMSP database; conditions: filter condition; ref TCMSP database; cited from earlier work

Row | Structure (SMILES) | IC50 [1] | Oral bioavailability (OB) [2]
1 | CC(C)=CCc1cc(-c2oc3cc(O)cc(O)c3c(=O)c2O)ccc1O [AF−11, isolicoflavonol] | 176 ± 6 µM | ≥ 30%
2 | COc1ccc(-c2oc3cc(O)cc(O)c3c(=O)c2OC2OC(CO)C(O)C(O)C2O)cc1O (centres unmarked) [AF−40, tamarixin] | 282 ± 3 µM | –
3 | O=c1c(O)c(-c2ccc(O)cc2)oc2cc(O)cc(O)c12 [AF−8, kaempferol] | – | ≥ 30%
4 | CN1[C@H]2C[C@H](OC(=O)[C@H](CO)c3ccccc3)C[C@@H]1[C@@H](O)C2 [AF−23, anisodamine] | – | ≥ 30%
5 | CC(=O)OCC1OC(OC2C(C)OC(Oc3c(-c4ccc(O)cc4)oc4cc(O)cc(O)c4c3=O)C(O)C2O)C(O)C(O)C1O (centres unmarked) [AF−1, multiflorin A] | 289 ± 14 µM | –
6 | O=C(C=Cc1ccc(O)cc1)OCC1OC(Oc2c(-c3ccc(O)cc3)oc3cc(O)cc(O)c3c2=O)C(O)C(O)C1OC(=O)C=Cc1ccc(O)cc1 (stereo not drawn) [AF−33, kaempferol−3−O−β−D−4′′,6′′− di−(E)−p−coumaroyl glucoside] | 300 ± 23 µM | –
7 | COc1ccc(-c2oc3cc(O)cc(O)c3c(=O)c2O)cc1CC=C(C)C [AF−38, macasiamenol B] | 230 ± 34 µM | –
8 | O=c1c(OC2OC(COC3OC(CO)C(O)C(O)C3OC3OC(CO)C(O)C(O)C3O)C(O)C(O)C2O)c(-c2ccc(O)cc2)oc2cc(O)cc(O)c12 (stereo not drawn) [AF−34, kaempferol 3−O−β−D−glucopyranosyl−(1→2) −β−D−glucopyranosyl−(1→6)−β−D−glucopyranodide] | 335 ± 1 µM | –
9 | COc1cc(-c2oc3cc(O)cc(O)c3c(=O)c2OC2OC(COC(C)=O)C(O)C(O)C2O)ccc1O (stereo not drawn) [AF−36, isorhamnetin 3−O−β−D−(6−acetyl)−galactopyranoside] | 326 ± 13 µM | –
10 | COc1ccc(-c2oc3cc(OC)cc(O)c3c(=O)c2OC2OC(CO)C(O)C(O)C2O)cc1 (centres unmarked) [AF−15, kaempferol−4’,7−dimethyl−3−O−glucoside] | 506 ± 1 µM | –
